Literature values in patent US7488791B2, “Mixture of peptides derived from E6 and/or E7 papillomavirus proteins and uses thereof” (priority 2001, dated 2009).

Legend:
[1] = test system: cells in the blood; conditions: Tsukui et al., 140 HPV16+ patients; cited from earlier work
[2] = test system: cells from patients; conditions: Kadish et al.; cited from earlier work

E6: 59-112: HPV16 E6 peptide, positions 59-112, Tsukui et al. (IVYRDGNPYAVCDKCLKFYSKISEYRHYCYSLYGTTLEQQYNKPLCDLLIRCIN; UniProt P03126 59-112, looked up, fragment)
Secretion of IL2 (activation of cells) by patients, responders/tested [1]: 6/140

E7: 51-98: HPV16 E7 peptide, positions 51-98, Tsukui et al. (HYNIVTFCCKCDSTLRLCVQSTHVDIRTLEDLLMGTLGIVCPICSQKP; UniProt P03129 51-98, looked up, fragment)
Secretion of IL2 (activation of cells) by patients, responders/tested [1]: 7/140

E6: 22-51: HPV16 E6 peptide, positions 22-51, Kadish et al. (LCTELQTTIHDIILECVYCKQQLLRREVYD; UniProt P03126 22-51, looked up, fragment)
Proliferation of cells from patients (CIN or normal), responders/tested [2]: 17/46

E7: 62-80: HPV16 E7 peptide, positions 62-80, Kadish et al. (DSTLRLCVQSTHVDIRTLE; UniProt P03129 62-80, looked up, fragment)
Proliferation of cells from patients (CIN or normal), responders/tested [2]: 11/35

E6: 122-151: HPV16 E6 peptide, positions 122-151, Kadish et al. (KQRHLDKKQRFHNIRGRWTGRCMSCCRSSR; UniProt P03126 122-151, looked up, fragment)
Proliferation of cells from patients (CIN or normal), responders/tested [2]: 19/48

E7: 27-60: HPV16 E7 peptide, positions 27-60, Tsukui et al. (QLNDSSEEEDEIDGPAGQAEPDRAHYNIVTFCCK; UniProt P03129 27-60, looked up, fragment)
Secretion of IL2 (activation of cells) by patients, responders/tested [1]: 4/140

E7: 1-35: HPV16 E7 peptide, positions 1-35, Tsukui et al.
Secretion of IL2 (activation of cells) by patients, responders/tested [1]: 3/140

E6: 1-31: HPV16 E6 peptide, positions 1-31, Kadish et al. (MHQKRTAMFQDPQERPRKLPQLCTELQTTIH; UniProt P03126 1-31, looked up, fragment)
Proliferation of cells from patients (CIN or normal), responders/tested [2]: 17/48

E6: 62-91: HPV16 E6 peptide, positions 62-91, Kadish et al. (RDGNPYAVCDKCLKFYSKISEYRHYCYSLY; UniProt P03126 62-91, looked up, fragment)
Proliferation of cells from patients (CIN or normal), responders/tested [2]: 0/30

CC[C@H](C)[C@H](NC(=O)[C@@H](NC(=O)[C@@H](NC(=O)[C@H](CCC(N)=O)NC(=O)[C@H](CC(C)C)NC(=O)[C@H](CCC(=O)O)NC(=O)[C@@H](NC(=O)[C@H](CS)NC(=O)[C@H](CC(C)C)NC(=O)[C@H](CCC(N)=O)NC(=O)[C@@H]1CCCN1C(=O)[C@H](CC(C)C)NC(=O)[C@H](CCCCN)NC(=O)[C@@H](N)CCCNC(=N)N)[C@@H](C)O)[C@@H](C)O)[C@@H](C)O)C(=O)N[C@@H](Cc1c[nH]cn1)C(=O)O [E6 17-31, R K L P Q L C T E L Q T T I H]
Proliferation of cells from patients (CIN or normal), responders/tested [2]: 12/23

E6: 117-131: HPV16 E6 peptide, positions 117-131, Kadish et al. (LCPEEKQRHLDKKQR; UniProt P03126 117-131, looked up, fragment)
Proliferation of cells from patients (CIN or normal), responders/tested [2]: 12/23

E6: 82-111: HPV16 E6 peptide, positions 82-111, Kadish et al. (EYRHYCYSLYGTTLEQQYNKPLCDLLIRCI; UniProt P03126 82-111, looked up, fragment)
Proliferation of cells from patients (CIN or normal), responders/tested [2]: 5/34

E6: 42-71: HPV16 E6 peptide, positions 42-71, Kadish et al. (QQLLRREVYDFAFRDLCIVYRDGNPYAVCD; UniProt P03126 42-71, looked up, fragment)
Proliferation of cells from patients (CIN or normal), responders/tested [2]: 8/43

E7: 72-97: HPV16 E7 peptide, positions 72-97, Kadish et al. (THVDIRTLEDLLMGTLGIVCPICSQK; UniProt P03129 72-97, looked up, fragment)
Proliferation of cells from patients (CIN or normal), responders/tested [2]: 19/48
